Results published in patent publication US20250296971A1, “GASTRIC INHIBITORY PEPTIDE RECEPTOR LIGANDS” (priority 2021, published 2025).
Where two headings read alike, the source gives them in different places. *1 amine or outer side, *2 acyl side, *3 side chain or, on linkers, in order; H or OH if unused. Where a SMILES comes first, the peptide text is derived from it. Bridges are numbered along the chain shown (N, C = ends). [ ]: non-standard residue; d: D form. The star is where a group is joined. X5 = NC(=O)[C@H](CCCCNC(=O)CN1CCN(CC(=O)O)CCN(CC(=O)O)CCN(CC(=O)O)CC1)NC(=O)CCC(=O)NCCCOCCOCCOCCCN*; DOTA(Lu) = O=C1CN2CCN3CCN(CC(=O)*)CCN(CC2)CC(=O)[O][Lu]([O]1)[O]C(=O)C3; NH(1-deoxy-D-glucityl) = OC[C@@H](O)[C@@H](O)[C@H](O)[C@@H](O)CN*; X21 = O=C(CCP(=O)(O)CN1CCN(CP(=O)(O)CO)CCN(CP(=O)(O)CO)CC1)*; DOTA = O=C(O)CN1CCN(CC(=O)O)CCN(CC(=O)*)CCN(CC(=O)O)CC1; Trp(5-Cl) = N[C@@H](Cc1c[nH]c2ccc(Cl)cc12)C(=O)O; Phe(3,4-Cl2) = N[C@@H](Cc1ccc(Cl)c(Cl)c1)C(=O)O; Pyridine(2,6-diCH2) = c1cc(C[*:1])nc(C[*:2])c1; Pro(4R-NH2) = N[C@H]1CN[C@H](C(=O)O)C1; 1Nal = N[C@@H](Cc1cccc2ccccc12)C(=O)O; 2Nal = N[C@@H](Cc1ccc2ccccc2c1)C(=O)O; mXylylene = c1cc(C[*:1])cc(C[*:2])c1; Glutaryl = O=C(CCCC(=O)[*:2])[*:1]; Ser(ΨH,HPro) = O=C(O)[C@@H]1COCN1; Hyp = O=C(O)[C@@H]1C[C@@H](O)CN1; X1 = O=C(CN1CCC(N[*:1])CC1)[*:2]; Api = NC1(C(=O)O)CCNCC1; Thp = NC1(C(=O)O)CCOCC1; AEEA = NCCOCCOCC(=O)O; Aib = CC(C)(N)C(=O)O

Target: T1, GIPR (CHO-K1-hGIPR cells) (Homo sapiens, UniProt P48546)
T1 construct: host or cells: CHO-K1
T1 sequence (P48546 22-466): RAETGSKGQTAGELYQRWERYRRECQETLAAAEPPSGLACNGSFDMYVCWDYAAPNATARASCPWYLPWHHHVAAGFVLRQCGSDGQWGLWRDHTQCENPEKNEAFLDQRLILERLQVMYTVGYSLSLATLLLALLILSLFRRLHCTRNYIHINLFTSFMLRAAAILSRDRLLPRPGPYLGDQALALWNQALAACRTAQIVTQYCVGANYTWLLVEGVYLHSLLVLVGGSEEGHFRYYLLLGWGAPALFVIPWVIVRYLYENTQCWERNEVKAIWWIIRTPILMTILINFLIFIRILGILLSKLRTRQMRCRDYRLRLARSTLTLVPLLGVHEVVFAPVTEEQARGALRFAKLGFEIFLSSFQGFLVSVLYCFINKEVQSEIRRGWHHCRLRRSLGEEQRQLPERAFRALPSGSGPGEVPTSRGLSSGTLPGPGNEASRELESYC
Experiment: FACS binding assay
Method: In order to determine binding of compounds according to the present invention to GIPR-expressing cells, a FACS binding assay was established.
CHO-K1-hGIPR cells (GenScript Biotech, #M00486) were cultured in Ham's F12 medium (Sigma-Aldrich, #N4888) including 10% fetal calf serum (FCS), 2 mM L-glutamine, 100 U/mL penicillin, 100 μg/mL streptomycin, 200 μg/mL Zeocin and 100 μg/mL HygromycinB. Cells were detached with Accutase (Biolegend, #BLD-423201) and washed in FACS buffer (PBS including 1% FCS). Cells were diluted in FACS buffer to a final concentration of 500.000 cells per mL. 200 μL of the cell suspension were transferred to a u-shaped non-binding 96-well plate (Greiner) and cells were washed in ice-cold FACS buffer.
Cells were washed twice in FACS buffer. An additional incubation step with 1 μg/mL APC-Streptavidin (Miltenyi; #130-106-791) in 50 μL FACS buffer for 30 min on ice was performed followed by two washes with FACS buffer.
Cells were analyzed in an Attune NxT flow cytometer. Median fluorescence intensities (MFI) of the APC/Cy5-channel were calculated by Attune NxT software. MFI values were plotted against peptide concentration and four parameter logistic (4PL) curve fitting and EC50/pEC50 or IC50/pIC50 calculations were performed using ActivityBase software.

[1] = competition with 20 nM GIP-057, 4° C. for 1 hour, read-out: pIC50 Category (converted)
[2] = competition with 20 nM GIP-057, 4° C., 1 hour, read-out: pIC50 Category (converted)
[3] = pIC50 Category, competition with 20 nM GIP-057, 4° C., 1 hour

SMILES	IC50 [1] [µM]	IC50 [2] [µM]	further results
CC[C@H](C)[C@@H]1NC(=O)[C@H](CC(C)C)NC(=O)C2(CCOCC2)NC(=O)[C@@H](NC(=O)[C@@H](CC(C)C)NC(=O)[C@H](CCC(=O)O)NC(=O)[C@@H]2C[C@@H](N)CN2C(=O)[C@H](Cc2c[nH]c3ccc(Cl)cc23)NC(=O)[C@H](Cc2c[nH]c3ccccc23)NC(=O)[C@H](CC(=O)O)NC(=O)[C@@H](CCC(=O)NC[C@H](O)[C@@H](O)[C@H](O)[C@H](O)CO)NC(=O)COCCOCCNC(=O)CN2CCN(CC(=O)O)CCN(CC(=O)O)CCN(CC(=O)O)CC2)CSCc2cccc(n2)CSC[C@@H](C(=O)NC2CCN(CC(=O)N[C@H](CCC(=O)NC[C@H](O)[C@@H](O)[C@H](O)[C@H](O)CO)C(N)=O)CC2)NC1=O [GIP-018, DOTA-O2Oc-glu(AGLU)-Asp-Trp-5Clw-Tap-Glu-leu-[Cys(2Lut)-Thp-Leu-Ile-Cys]-APAc-glu(AGLU)-NH2] ({DOTA-AEEA}-[dE](NH(1-deoxy-D-glucityl))DW[Trp(5-Cl)][Pro(4R-NH2)]E[dL]C[Thp]LIC[X1][dE](NH(1-deoxy-D-glucityl))-NH2; linker 8-12 via Pyridine(2,6-diCH2))		< 0.01	
CC[C@H](C)[C@@H]1NC(=O)[C@H](CC(C)C)NC(=O)C2(CCN(C(=O)CCP(=O)(O)CN3CCN(CP(=O)(O)CO)CCN(CP(=O)(O)CO)CC3)CC2)NC(=O)[C@@H](NC(=O)[C@@H](CC(C)C)NC(=O)[C@H](CCC(=O)O)NC(=O)[C@@H]2C[C@@H](N)CN2C(=O)[C@H](Cc2c[nH]c3ccc(Cl)cc23)NC(=O)[C@H](Cc2c[nH]c3ccccc23)NC(=O)[C@H](CC(=O)O)NC(=O)CCCC(=O)NC[C@H](O)[C@@H](O)[C@H](O)[C@H](O)CO)CSCc2cccc(n2)CSC[C@@H](C(=O)NC2CCN(CC(=O)N[C@H](CCC(=O)NC[C@H](O)[C@@H](O)[C@H](O)[C@H](O)CO)C(N)=O)CC2)NC1=O [GIP-029, AGLU-Glutar-Asp-Trp-5Clw-Tap-Glu-leu-[Cys(2Lut)-Apc(NOPO)-Leu-Ile-Cys]-APAc-glu(AGLU)-NH2] ({NH(1-deoxy-D-glucityl)-Glutaryl}-DW[Trp(5-Cl)][Pro(4R-NH2)]E[dL]C[Api](X21)LIC[X1][dE](NH(1-deoxy-D-glucityl))-NH2; linker 7-11 via Pyridine(2,6-diCH2))			IC50 [3]: < 0.01 µM
CC[C@H](C)[C@@H]1NC(=O)[C@H](CC(C)C)NC(=O)C2(CCOCC2)NC(=O)[C@@H](NC(=O)[C@@H](CC(C)C)NC(=O)[C@H](CCC(=O)O)NC(=O)[C@@H]2C[C@@H](O)CN2C(=O)[C@H](Cc2c[nH]c3ccc(Cl)cc23)NC(=O)[C@H](Cc2c[nH]c3ccccc23)NC(=O)[C@H](CC(=O)O)NC(=O)CN2CCC(NC(=O)[C@@H](CCC(=O)NC[C@H](O)[C@@H](O)[C@H](O)[C@H](O)CO)NC(=O)CN3CCN4CCN5CCN(CC3)CC(=O)[O][Lu]([O]C(=O)C4)[O]C(=O)C5)CC2)CSCc2cccc(n2)CSC[C@@H](C(=O)NC2CCN(CC(=O)N[C@H](CCC(=O)NC[C@H](O)[C@@H](O)[C@H](O)[C@H](O)CO)C(N)=O)CC2)NC1=O [GIP-062, LuDOTA-glu(AGLU)-APAc-Asp-Trp-5Clw-Hyp-Glu-leu-[Cys(2Lut)-Thp-Leu-Ile-Cys]-APAc-glu(AGLU)-NH2] ({DOTA(Lu)}-[dE](NH(1-deoxy-D-glucityl))[X1]DW[Trp(5-Cl)][Hyp]E[dL]C[Thp]LIC[X1][dE](NH(1-deoxy-D-glucityl))-NH2; linker 9-13 via Pyridine(2,6-diCH2))			IC50 [3]: < 0.01 µM
CC(=O)N[C@@H](CC(=O)O)C(=O)N[C@@H](Cc1c[nH]c2ccccc12)C(=O)N[C@@H](Cc1cccc2ccccc12)C(=O)N1CCC[C@H]1C(=O)N[C@@H](CCC(=O)O)C(=O)N[C@H](CC(C)C)C(=O)N[C@H]1CSCc2cccc(c2)CSC[C@@H](C(=O)NCCCOCCOCCOCCCNC(=O)CCC(=O)N[C@@H](CCCCNC(=O)CN2CCN(CC(=O)O)CCN(CC(=O)O)CCN(CC(=O)O)CC2)C(N)=O)NC(=O)[C@H](C(C)C)NC(=O)[C@H](CC(C)C)NC(=O)[C@H](C)NC1=O [GIP-138, Ac-Asp-Trp-1Ni-Pro-Glu-leu-[Cys(3MeBn)-Ala-Leu-Val-Cys]-Ttds-Lys(DOTA)-NH2] (Ac-DW[1Nal]PE[dL]CALVC-X5; linker 7-11 via mXylylene)		0.01 to 0.0794	

Second part, led by results:

IC50 [1] [µM]	IC50 [2] [µM]	SMILES	further results
> 1		CC[C@H](C)[C@@H]1NC(=O)[C@H](CC(C)C)NC(=O)C(C)(C)NC(=O)[C@@H](NC(=O)[C@H](CC(N)=O)NC(=O)[C@H](CCC(=O)O)NC(=O)[C@@H]2CCCN2C(=O)[C@H](Cc2cccc3ccccc23)NC(=O)[C@H](Cc2c[nH]c3ccccc23)NC(=O)[C@H](CC(=O)O)NC(C)=O)CSCc2cccc(c2)CSC[C@@H](C(N)=O)NC1=O [GIP-340, Ac-Asp-Trp-1Ni-Pro-Glu-Asn-[Cys(3MeBn)-Aib-Leu-Ile-Cys]-NH2] (Ac-DW[1Nal]PENC[Aib]LIC-NH2; linker 7-11 via mXylylene)	
0.1 to 0.794		CC[C@H](C)[C@@H]1NC(=O)[C@H](CC(C)C)NC(=O)C(C)(C)NC(=O)[C@@H](NC(=O)[C@H](CC(C)C)NC(=O)[C@H](CCC(=O)O)NC(=O)[C@@H]2CCCN2C(=O)[C@H](Cc2c[nH]c3ccccc23)NC(=O)[C@H](Cc2ccc3ccccc3c2)NC(=O)[C@H](CC(=O)O)NC(C)=O)CSCc2cccc(c2)CSC[C@@H](C(=O)NCCCOCCOCCOCCCNC(=O)CCC(=O)N[C@@H](CCCCNC(=O)CN2CCN(CC(=O)O)CCN(CC(=O)O)CCN(CC(=O)O)CC2)C(N)=O)NC1=O [GIP-272, Ac-Asp-2Ni-Trp-Pro-Glu-Leu-[Cys(3MeBn)-Aib-Leu-Ile-Cys]-Ttds-Lys(DOTA)-NH2] (Ac-D[2Nal]WPELC[Aib]LIC-X5; linker 7-11 via mXylylene)	
	< 0.01	CC[C@H](C)[C@@H]1NC(=O)[C@H](CC(C)C)NC(=O)C2(CCOCC2)NC(=O)[C@@H](NC(=O)[C@@H](CC(C)C)NC(=O)[C@H](CCC(=O)O)NC(=O)[C@@H]2COCN2C(=O)[C@H](Cc2c[nH]c3ccc(Cl)cc23)NC(=O)[C@H](Cc2c[nH]c3ccccc23)NC(=O)[C@H](CC(=O)O)NC(C)=O)CSCc2cccc(n2)CSC[C@@H](C(N)=O)NC1=O [GIP-216, Ac-Asp-Trp-5Clw-Oxa-Glu-leu-[Cys(2Lut)-Thp-Leu-Ile-Cys]-NH2] (Ac-DW[Trp(5-Cl)][Ser(ΨH,HPro)]E[dL]C[Thp]LIC-NH2; linker 7-11 via Pyridine(2,6-diCH2))	
0.1 to 0.794		CC[C@H](C)[C@@H]1NC(=O)[C@H](CC(C)C)NC(=O)C2(CCOCC2)NC(=O)[C@@H](NC(=O)[C@@H](CC(C)C)NC(=O)[C@H](CCC(=O)O)NC(=O)[C@@H]2C[C@@H](O)CN2C(=O)[C@H](Cc2ccc(Cl)c(Cl)c2)NC(=O)[C@H](Cc2ccc(Cl)c(Cl)c2)NC(=O)[C@H](CC(=O)O)NC(C)=O)CSCc2cccc(n2)CSC[C@@H](C(N)=O)NC1=O [GIP-323, Ac-Asp-Eaa-Eaa-Hyp-Glu-leu-[Cys(2Lut)-Thp-Leu-Ile-Cys]-NH2] (Ac-D[Phe(3,4-Cl2)][Phe(3,4-Cl2)][Hyp]E[dL]C[Thp]LIC-NH2; linker 7-11 via Pyridine(2,6-diCH2))	
	< 0.01	CC[C@H](C)[C@@H]1NC(=O)[C@H](CC(C)C)NC(=O)C2(CCOCC2)NC(=O)[C@@H](NC(=O)[C@@H](CC(C)C)NC(=O)[C@H](CCC(=O)O)NC(=O)[C@@H]2C[C@@H](N)CN2C(=O)[C@H](Cc2c[nH]c3ccc(Cl)cc23)NC(=O)[C@H](Cc2c[nH]c3ccccc23)NC(=O)[C@H](CC(=O)O)NC(C)=O)CSCc2cccc(n2)CSC[C@@H](C(N)=O)NC1=O [GIP-239, Ac-Asp-Trp-5Clw-Tap-Glu-leu-[Cys(2Lut)-Thp-Leu-Ile-Cys]-NH2] (Ac-DW[Trp(5-Cl)][Pro(4R-NH2)]E[dL]C[Thp]LIC-NH2; linker 7-11 via Pyridine(2,6-diCH2))	
